# According to ChEMBL document CHEMBL1157539, “Thousands of chemical starting points for antimalarial lead identification” (Nature, 2010):
# Test system: Plasmodium falciparum
# Assay: GSK_TCMDC: Inhibition of Plasmodium falciparum 3D7 in whole erythrocytes, using parasite LDH activity as an index of growth.
# Type: functional, organism-based
# Conditions: not given
row,Compound,XC50 [nM]
1,O=C(/C=C/c1cccc(Cl)c1)NC1CCC(CN2CCC(c3c[nH]c4ccccc34)CC2)CC1 (stereo unspecified),721

# Same assay, conditions: Plasmodium falciparum, 3D7
row,Compound,XC50 [nM]
1,CN(C)CCNC(=O)[C@H](CC1CCCCC1)NC(=O)c1ccc(O)c(-c2ccc(Cl)c(Cl)c2)c1,775
2,Cc1ccc(C(=O)Cn2nc(-c3ccc(C)c(S(=O)(=O)N4CCCCC4)c3)ccc2=O)cc1,333
3,O=C(Nc1ccccc1)N(Cc1ccc(-c2ccc(CNC3CCCC3)cc2)cc1)C1CCN(Cc2ccccc2)CC1,408
4,CCN(CC)CCN(Cc1ccc(-c2ccc(C(F)(F)F)cc2)cc1)C(=O)Cn1cc(CCCCc2cccc(F)c2F)c(=O)c2ccccc21,883
5,CCCCCN1CCCC(NS(=O)(=O)c2ccc(C(=O)Nc3ccc(C(F)(F)F)cc3)cc2)C1 (stereo unspecified),1630
6,FC(F)(F)c1cnc(Sc2nnc(-c3ccncc3)o2)c(Cl)c1,272
7,COc1ccc2nc3cc(Cl)ccc3c(Nc3ccc(O)c(CNC(C)C)c3)c2c1,140
8,COc1cc2nccc(Nc3ccc(OCc4ccccc4)cc3)c2cc1OC,203
9,O=C(N[C@H]1CCCC[C@H]1C(=O)O)c1ccccc1,781
10,COc1cc(Nc2ccnc3ccc(C(C)(C)C)cc23)cc(OC)c1OC,610
11,CC1(C)N=C(N)N=C(N)N1c1ccccc1,327
12,O=C(Nc1ccccc1)c1ccc(-c2cc3ccncc3cc2OC2CCNCC2)s1,654
13,CC(C)CNCc1ccc(-c2cccc(CN(C(=O)CCC3CCCC3)C3CCN(Cc4ccccc4)CC3)c2)cc1,799
14,O=C(Nc1cccc(Cl)c1N1CCOCC1)C(Cl)(Cl)Cl,983
15,O=C(/C=C/c1cccc(Cl)c1)NC1CCC(CN2CCC(c3c[nH]c4ccccc34)CC2)CC1 (stereo unspecified),752
16,O=C(c1ccc(-c2cnc3[nH]cc(-c4ccc(C(=O)N5CCOCC5)cc4)c3c2)cc1)N1CCOCC1,1000
17,CC(C)(C)C(=O)Nc1ccc(N2CCN(C(c3ccccc3)c3ccccc3)CC2)c(Cl)c1,662
18,COc1ccc2c(NN=CC=Cc3ccccc3)ccnc2c1,770
19,CCN(CC)CCN(Cc1ccc(-c2ccc(C(F)(F)F)cc2)cc1)C(=O)Cn1c(CCc2ccc(F)cc2)nc(=O)c2sccc21,670
20,Cc1ccc2[nH]c(-c3ccccc3N)cc2c1,923
21,CN(Cc1ccccc1)C1CCN(CCc2c[nH]c3ccc(F)cc23)CC1,597
22,CN(C)CCCNc1ncnc2c1[nH]c1ccc(F)cc12,732
23,CC(C)n1c(C(C)(C)C)cc2c3c(N)nc(N)nc3ccc21,3.2
24,Cc1cccc2nc(-c3cccc(-c4cccc(CNCCc5ccncc5)c4)c3)[nH]c12,139
25,FC(F)(F)c1ccc(CNC2CCN(CC3CCCCC3)CC2)cc1,933

row,Compound,XC50 [nM]
1,Cc1cc(NC(=O)NCCN2CCC(NC(=O)c3cccc(Br)c3)C2)c2ccccc2n1 (stereo unspecified),553
2,CCN1CCN(c2cc(C)c3cc(NC(=O)c4cncc(Br)c4)ccc3n2)CC1,656
3,Cc1ccc(-n2cc(CNCCCn3ccnc3)c(-c3cccc(C)c3)n2)cc1,773
4,O=C(Nc1cccc(-c2ccc(CN3CCCC3)cc2)c1)c1cccc(Cl)c1,430
5,CC(C)N1CCN(c2ccc(OCCCCN3CCN(c4cccc(Cl)c4Cl)CC3)c(C(F)(F)F)c2)CC1,815
6,Cc1cc(CNCCCCCCCNCc2ccc(Cl)cc2)ccc1O,975
7,C=CCn1c(Sc2ccc(C#N)c([N+](=O)[O-])c2)nnc1-c1cc(OC)cc(OC)c1,436
8,CCCCC(=O)Nc1nc2ccc([N+](=O)[O-])cc2s1,756
9,O=C(Nc1ccc(OC2CCN(Cc3ccc(F)cc3)CC2)cc1)c1cccs1,969
10,COc1ccccc1N1CCN(c2cccc(F)c2C#N)CC1,965
11,COc1nc(N)ncc1C(=O)NC1CN2CCC1CC2 (stereo unspecified),235
12,C=CCc1ccc(C2CCN(CCCCNC(=O)c3ccc(NC(=O)c4ccc(Cl)cc4)cc3)CC2)cc1,1120
13,O=C(/C=C/c1ccc(Cl)c(Cl)c1)NCCCCCCN1CCCN(C(=O)Nc2ccc(F)c(Cl)c2)CC1,738
14,Cc1csc(NC2=NCCN2)n1,471
15,Cc1ccc(CNC(=O)[C@H](CC(C)C)Nc2cc(C)nc(Nc3ccccc3)n2)cc1,1770
16,O=C(Nc1cccc(OCCN2CCCC2)c1)Nc1ccc(Cl)c(Cl)c1,775
17,CC(C)(C)OC(=O)c1c(NC(=O)/C=C/c2ccc(O)c(O)c2)sc2c1CCCC2,819
18,Cc1[nH]c2ccccc2c1C1=CCN(CC2CC2C(=O)c2ccccc2)CC1 (stereo unspecified),349
19,O=C(NC1CCCCC1)N(Cc1ccc(-c2cccc(CNC3CCCC3)c2)cc1)C1CCN(Cc2ccccc2)CC1,785
20,CC(C)(CNCc1ccccc1)c1nc(-c2ccc(Cl)c(O)c2)c(-c2ccncc2)[nH]1,537
21,CC[C@H](C)CNC(=O)c1ccnc(-c2cccc(CN(C)C3CCN(C)CC3)c2)c1,898
22,O=C(/C=C/c1ccc(Cl)c(Cl)c1)NCCCCCCN1CCN(C(=O)Nc2ccc(OC(F)F)cc2)CC1,679
23,O=C(NC1CCC(CN2CCC(c3c[nH]c4ccccc34)CC2)CC1)C1(O)c2ccccc2-c2ccccc21 (stereo unspecified),1190
24,CC(C)(C)c1ccc(CNCCOc2ccc(Nc3nnc(-c4ccc(-c5ncc[nH]5)cc4)o3)c3ccccc23)cc1,135
25,Nc1ccc(-c2nc3cc(Oc4ccc5[nH]c(-c6ccc(N)cc6)nc5c4)ccc3[nH]2)cc1,719

row,Compound,XC50 [nM]
1,Cc1ccc(CC(C)NCC(O)c2cccc([N+](=O)[O-])c2)cc1 (stereo unspecified),761
2,Cc1cc(NC(=O)c2coc3cc(F)c(N4CC(C)N(C)C(C)C4)cc23)ccc1-n1ccnc1 (stereo unspecified),841
3,CC(C)(CNCc1ccc(OC(F)(F)F)cc1)c1nc(-c2ccc(Cl)c(O)c2)c(-c2ccncc2)[nH]1,545
4,O=C(Nc1cccc(-c2ccc(-c3nc4cc(C(F)(F)F)ccc4[nH]3)s2)c1)c1c[nH]cn1,1110
5,Oc1ccc(-c2ccccc2)cc1CNC1CCCCC1,497
6,COc1cccc(NC(=O)CSc2nc(-c3ccccc3Cl)ns2)c1,814
7,CCC(CC)n1c(COC)cc2c3c(N)nc(N)nc3ccc21,5.57
8,Fc1cc(Cl)ccc1Nc1ccnc2cc(-c3ccc(CNCCN4CCOCC4)o3)ccc12,277
9,COCCn1c(-c2nc(-c3ccc(F)cc3)cnc2N)nc2ccccc21,872
10,CC(C)(C)c1nn(-c2ccccc2)c2[nH]c(=O)c(CNCc3ccccc3)cc12,1050
11,CC(C)CCN1CCCN(Cc2ccc(C(=O)Nc3ccc(F)c(F)c3)cc2)CC1,944
12,O=C(Nc1ccc(OCc2ccccc2)cc1)c1nc2ccccc2nc1Cl,254
13,CN(C)c1nc(NN=Cc2cc(Cl)ccc2O)nc(Nc2ccc(F)cc2)n1,837
14,COc1cc2c(C3CCN(CC4CCC(NC(=O)/C=C/c5ccc(Cl)c(Cl)c5)CC4)CC3)c[nH]c2cn1 (stereo unspecified),423
15,N=C(N)NN=Cc1ccccc1OCc1ccccc1Cl,718
16,CCC(C)(C)c1ccc(OCC(O)CN2CCCCC2)c(C(C)(C)CC)c1 (stereo unspecified),1300
17,Oc1c(C(Nc2ccccn2)c2ccc(Cl)cc2Cl)ccc2cccnc12 (stereo unspecified),892
18,CC(C)C[C@H](NC(=O)[C@H](Cc1ccccc1)N(C[C@H](Cc1ccccc1)NC(=O)OC(C)(C)C)C(=O)C(F)(F)F)C(=O)NC1CCN(Cc2ccccc2)CC1,530
19,CC(C)(C)c1ccc(CN2CCC(NC(=O)c3ccc(-c4cccc(C(F)(F)F)c4)s3)CC2)cc1,359
20,Oc1ccc(Cl)cc1CN1CCC(CCOC(c2ccccc2)c2ccc(Cl)cc2)CC1 (stereo unspecified),390
21,CN1C(=C2SC(=Nc3ccc4ncccc4c3)N(Cc3ccccc3)C2=O)Sc2ccc(Cl)cc21,1060
22,CCN1CCC(N2CCC(C(=O)Nc3cccc(-c4cccc(Cl)c4)c3)CC2)CC1,1080
23,Cc1cccc(-n2c(=O)c3c4c(sc3n3c(SCCC(C)C)nnc23)CCCC4)c1,763
24,CC1(C)N=C(N)N=C(N)N1OCc1ccc2ccccc2c1,3.2
25,CN(C)CCN(C)Cc1ccc(-c2ccc(NS(=O)(=O)c3cccc4cccnc34)cc2)cc1,864

row,Compound,XC50 [nM]
1,CN(C)CCNc1ncnc2c1[nH]c1ccc(Br)cc12,742
2,N#Cc1ccc(N/C(=N\c2ccc(-c3ccccc3)cc2)NCc2cccnc2)c(O)c1,813
3,Cc1cccc2nc(-c3ccc(-c4ccc(CN5CCN(CCN6CCOCC6)CC5)cc4)cc3)[nH]c12,231
4,CC1c2cccc(O)c2CCN1CCc1ccc(Cl)c(Cl)c1 (stereo unspecified),138
5,Cc1noc(C)c1-c1cccc(CNCc2cccc(-c3cccc(-c4nc5cccc(C)c5[nH]4)c3)c2)c1,370
6,CC(=O)Nc1ncc(C(=O)Nc2cccc(-c3cccc(-c4nc5cccc(C)c5[nH]4)c3)c2)s1,354
7,O=C(Nc1ccc(Cn2nc(Cl)c(N3CCNCC3)cc2=O)cc1)Nc1ccc(-c2ccccc2)cc1,753
8,Cc1ccc(O)cc1Nc1c(C(N)=O)cnc2ccc(-c3cncs3)cc12,670
9,COc1cccc2sc(N3CCN(C(=O)c4ccc([N+](=O)[O-])o4)CC3)nc12,869
10,CCCC(C)NC(=O)[C@H](CC1CCCCC1)NC(=O)c1ccc(O)c(-c2cccc(C(F)(F)F)c2)c1 (stereo partly specified),534
11,O=C(Nc1ccc(-c2nc3ccccc3[nH]2)cc1)c1cccc(S(=O)(=O)N2CCOCC2)c1,902
12,CC(C)N(CC(=O)c1ccc(O)c(C(=O)O)c1)Cc1ccccc1,187
13,CCOc1cc(Cc2cnc(N)nc2N)ccc1OC,1250
14,Cc1cc(NC(=O)[C@H](CC2CCCCC2)Nc2ccc(C#N)c3ccccc23)ccc1F,684
15,O=C(c1cc(C(=O)NCc2ccc(Cl)cc2)c(=O)n(Cc2ccc(Cl)cc2)c1)c1cc(Cl)ccc1O,1400
16,O=C(NC1CCN(Cc2cccc(C(F)(F)F)c2)CC1)c1ccc(-c2cccc(C(F)(F)F)c2)s1,1010
17,O=C(Nc1ccc(-c2ccccc2)cc1)Nc1cccc(Cn2nc(Cl)c(N3CCCNCC3)cc2=O)c1,676
18,Cc1ccccc1Nc1nc(NCc2ccccc2)nc2ccccc12,1020
19,Cc1nc(NC(=N)N)nc2cc3c(cc12)CCC3,916
20,CC1CCN(c2nc(C(=O)Nc3ccc(F)cc3C(F)(F)F)c(C(C)C)s2)CC1,229
21,Cc1cc(NC2CCCC2)nc(Nc2ccccc2C)n1,1350
22,CN1CCC(NC(=O)c2cccc(Nc3cc(Nc4cccc(Br)c4)ncn3)c2)CC1,1010
23,O=C(Nc1cccc(Cl)c1)OC1CCCN2CCCCC12 (stereo unspecified),1020
24,Cc1ccc(OCCCCONC(=O)c2ccccc2)cc1,145
25,CCN(CC)CCN(Cc1ccc(-c2ccc(C(F)(F)F)cc2)cc1)C(=O)Cn1c(SCc2ccc(F)cc2)nc(=O)c2sccc21,987
